# Data as given in patent US20140039031A1, “PHARMACEUTICAL FORMULATIONS OF ACETYL-11-KETO-B-BOSWELLIC ACID, DIINDOLYLMETHANE, AND CURCUMIN FOR PHARMACEUTICAL APPLICATIONS” (Dispersol Technologies. LLC, priority 2011, published 2014).
# Experiments:
# [1] = Dissolution testing under non-sink conditions (USP XXIX method A enteric dissolution test); format: physicochemical; conditions: pH 6.8 buffer, read from FIG. 6
# Experimental: Dissolution tests were performed with a dissolution apparatus (VK 7000 Dissolution Tester with a VK 8000 Autosampler). The testing was carried out according to a published method (USP XXIX method A enteric dissolution test); non-sink conditions were maintained throughout the testing using 1 L of final neutral media. The solution of 0.1N HCl (pH of 1.2) with a formulation present was stirred at 50 rpm for 2 hours and then the solution was converted to 0.2M Phosphate Buffer (pH of 6.8) and stirring continued up to 12 hours. At times of 60, 120, 125, 135, 150, 165, 180, 210, 240, 300, 360, 480, and 720 minutes, three×5 mL samples were removed and analyzed for soluble AKBA.
# [2] = Solubility enhancement of AKBA by combination of polymer carriers and surfactants (UV-Visible); format: physicochemical; conditions: pH 6.8 phosphate buffer; 20 mg AKBA in 10 mL; shaken at least 72 hours at 37° C.; 0.45 micron filter
# Experimental: Evaluation of Solubility Enhancement Capability of the Combination of Polymer Carriers (Thermal Binders) and Surfactants for Solubilizing AKBA.
# 20 mg of AKBA was placed in a 10 mL cuvette, followed by the desired amount of polymer carriers and/or surfactants to be studied to give the desired ratio of materials. A pH 6.8 phosphate buffer was added as needed to bring the volume up to 10 mL. […] The resulting material was filtered through a 0.45 micron filter and analyzed by UV-Visible spectroscopy to determine the AKBA content.
# [3] = Solubility enhancement of AKBA by surfactants (UV-Visible); format: physicochemical; conditions: pH 6.8 phosphate buffer; 100 mg AKBA in 10 mL; shaken at least 72 hours at 37° C.; 0.20 micron filter
# Experimental: Evaluation of Solubility Enhancement Capability of Surfactants for Solubilizing AKBA.
# 100 mg of AKBA was placed in a 10 mL cuvette, followed by the desired amount of surfactant to be studied to give the desired ratio of materials. Powder surfactants were measured directly into the cuvette in the amounts of 10 mg, 25 mg and 50 mg. Liquid surfactants were added by making a solution of 1.25 gm of surfactant in 250 ml of buffer, and then adding 2 ml, 5 ml, or 10 ml of the buffer solution to add 10 mg, 25 mg and 50 mg of the surfactant. A pH 6.8 phosphate buffer was added as needed to bring the volume up to 10 mL. After all material was added to the cuvette, the cuvette was sealed, sonicated for 2 hours on two separate occasions and then shaken for at least 72 hours at 37° C. The resulting material was filtered through a 0.20 micron filter and analyzed by UV-Visible spectroscopy to determine the AKBA content.
# [4] = Bioavailability (pharmacokinetic) study of AKBA formulations, oral gavage; format: in vivo, Sprague-Dawley rats; conditions: rat, dose equivalent to 50 mg/kg AKBA, * statistically significant
# Experimental: A study was performed to evaluate the pharmacokinetic parameters of AKBA compositions. For the study, adult male Sprague-Dawley rats (275-300 grams, 63-67 days) were caged individually and maintained on a normal rodent chow diet with free access to water. Rats were randomly divided into groups of 4 rats with each group receiving one formulation. Prior to dosing, each formulation was reconstituted in deionised water. The formulations were administered as a dose equivalent to 50 mg/kg AKBA. Each formulation was delivered by 1 mL oral gavage via a pharyngeal tube such that each group of 4 rats received a different formulation. Each formulation was administered to dose AKBA at a concentration of 15 mg/l mL to prevent spontaneous release through the pyloric sphincter (volumetric dose below 4 mL/kg body weight).
# The administered formulations were: […]
# The catheters of the rats were flushed daily with 300 μL of 50 U/mL heparinized normal saline. Blood samples of approximately 300 μL were collected from the jugular vein catheter at 0, 0.5, 1, 1.5, 2, 2.5, 3, 3.5, 4, 4.5, 5, 5.5, 6 and 8 hours after dosing using a 1 mL syringe and attached […] needle. Blood was slowly extracted into the needle through the catheter. The blood samples were placed into preheparinized 1.5 mL microcentrifuge tubes. Withdrawn blood was replaced with equal volumes of heparinized saline by injecting through the jugular vein catheter. The bioavailability of the API was then determined by monitoring the API levels in the blood over time.
# [5] = Solubility enhancement of AKBA by polymer carriers (thermal binders) (UV-Visible); format: physicochemical; conditions: pH 6.8 phosphate buffer; 20 mg AKBA in 10 mL; shaken at least 72 hours at 37° C.; 0.45 micron filter
# Experimental: Evaluation of Solubility Enhancement Capability of Polymer Carriers (Thermal Binders) for Solubilizing AKBA.
# 20 mg of AKBA was placed in a 10 mL cuvette, followed by the desired amount of polymer carriers to be studied to give the desired ratio of materials. A pH 6.8 phosphate buffer was added as needed to bring the volume up to 10 mL. After all material was added to the cuvette, the cuvette was sealed, sonicated for 2 hours on two separate occasions and then shaken for at least 72 hours at 37° C. The resulting material was filtered through a 0.45 micron filter and analyzed by UV-Visible spectroscopy to determine the AKBA content.
structure (smiles),measurement,setting,value
"CC(=O)O[C@@H]1CC[C@@]2(C)[C@@H](CC[C@]3(C)[C@@H]2C(=O)C=C2[C@@H]4[C@@H](C)[C@H](C)CC[C@]4(C)CC[C@]23C)[C@@]1(C)C(=O)O [AKBA, acetyl-11-keto-β-boswellic acid]",peak solubility,[1],about 2 μg/ml
same,"AKBA solubility, mcg/mL Buffer (Material - Combination of Surfactants and Polymer Carriers)",[2],8.46 µg/mL
same,"AKBA solubility, mcg/mL Buffer (Material - Surfactants)",[3],0.01 µg/mL
same,Average of AUC,[4],0.71* ± 0.24 μg-hr/mL
same,Average of Cmax,[4],0.35* ± 0.12 μg/mL
same,Average of Tmax,[4],4.75* ± 1.55 hours
same,Average of t1/2,[4],2.30 ± 1.43 h
same,"AKBA solubility, mcg/mL Buffer (Material - Polymer Carriers)",[5],7.27 µg/mL
